Data set [1] can be described thus: Mouse PK profile after oral administration. It counts as in vivo, Male CD-1 mice. As to the method:
Species and strain: Male CD-1 mice of SPF. Source: Sino-British SIPPR/BK Lab Animal Ltd, Shanghai. 3 mice were orally gavage administrated with given compounds (Formulation: 5% DMSO+10% Solutol+85% Saline). The blood samples were taken via cephalic vein at timepoints 0.25 h, 0.5 h, 1 h, 2 h, 4 h, 6 h, 8 h and 24 h after oral gavage administration, 30 μL/time point. Blood samples were placed in tubes containing K2-EDTA and stored on ice until centrifuged. The blood samples were centrifuged at 6800 g for 6 minutes at 2-8° C. within 1 h after collected and stored frozen at approximately −80° C. An aliquot of 10 μL plasma samples were protein precipitated with 200 μL MeOH in which contains 10 ng/mL Verapamil (IS). The mixture was vortexed for 1 min and centrifuged at 18000 g for 7 min. Transfer 180 μL supernatant to 96 well plates. An aliquot of 6 μL supernatant was injected for LC-MS/MS analysis by LC-MS/MS-04 (API4000) instrument. The analytical results were confirmed using quality control samples for intra-assay variation. The accuracy of >66.7% of the quality control samples should be between 80-120% of the known value(s). Standard set of parameters including Area Under the Curve (AUC(0-t) and AUC(0-∞)), elimination half-live (T½), maximum plasma concentration (Cmax), will be calculated using noncompartmental analysis modules in FDA certified pharmacokinetic program Phoenix WinNonlin 7.0 (Pharsight, USA).

Data set [2] in a line: Rat PK profile after oral administration. It counts as in vivo, Male SD rats. On the procedure:
Species and strain: Male SD rats of SPF. Source: Sino-British SIPPR/BK Lab Animal Ltd, Shanghai. 3 rats were orally gavage administrated with given compounds (Formulation: 5% DMSO+10% Solutol+85% Saline). The blood samples were taken via submandibular vein or other suitable vein at timepoints 0.25 h, 0.5 h, 1 h, 2 h, 4 h, 6 h, 8 h and 24 h after oral gavage administration, 0.15 mL/time point. Blood samples were placed in tubes containing K2-EDTA and stored on ice until centrifuged. The blood samples were centrifuged at 6800 g for 6 minutes at 2-8° C. within 1 h after collected and stored frozen at approximately −80° C. An aliquot of 30 μL plasma samples were protein precipitated with 300 μL MeOH in which contains 100 ng/mL Verapamil (IS). The mixture was vortexed for 1 min and centrifuged at 18000 g for 7 min. Transfer 300 μL supernatant to 96 well plates. An aliquot of 8 μL supernatant was injected for LC-MS/MS analysis by LC-MS/MS-12 (TQ5500) instrument. The analytical results were confirmed using quality control samples for intra-assay variation. The accuracy of >66.7% of the quality control samples should be between 80-120% of the known value(s). Standard set of parameters including Area Under the Curve (AUC(0-t) and AUC(0-∞)), elimination half-live (T1/2), maximum plasma concentration (Cmax), will be calculated using noncompartmental analysis modules in FDA certified pharmacokinetic program Phoenix WinNonlin 7.0 (Pharsight, USA).

For another data set, the target named is T1, DGKA (Homo sapiens, UniProt P23743).
T1 construct: purchased SignalChem D21-10BG
T1 sequence (P23743 whole entry): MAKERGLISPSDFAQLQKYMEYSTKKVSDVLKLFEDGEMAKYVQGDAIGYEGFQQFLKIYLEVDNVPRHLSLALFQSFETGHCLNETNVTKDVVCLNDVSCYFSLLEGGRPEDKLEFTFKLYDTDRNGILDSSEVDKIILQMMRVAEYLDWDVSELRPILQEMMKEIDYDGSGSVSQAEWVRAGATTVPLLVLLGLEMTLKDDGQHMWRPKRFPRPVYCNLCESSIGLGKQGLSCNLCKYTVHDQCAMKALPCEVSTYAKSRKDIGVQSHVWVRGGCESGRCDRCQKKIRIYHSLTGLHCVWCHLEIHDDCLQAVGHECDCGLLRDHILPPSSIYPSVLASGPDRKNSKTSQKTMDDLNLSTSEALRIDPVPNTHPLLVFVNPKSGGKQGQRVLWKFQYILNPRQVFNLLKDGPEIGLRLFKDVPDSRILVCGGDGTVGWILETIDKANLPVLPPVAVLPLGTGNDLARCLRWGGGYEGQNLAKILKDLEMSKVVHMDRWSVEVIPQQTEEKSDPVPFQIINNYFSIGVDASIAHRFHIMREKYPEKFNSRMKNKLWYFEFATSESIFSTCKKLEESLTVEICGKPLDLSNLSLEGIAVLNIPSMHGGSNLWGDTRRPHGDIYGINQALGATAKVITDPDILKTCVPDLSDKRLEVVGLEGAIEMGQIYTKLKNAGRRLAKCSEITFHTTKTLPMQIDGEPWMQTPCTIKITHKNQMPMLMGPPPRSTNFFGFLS
The data set is described as follows: DGKA Inhibition ADP-Glo Assay. It counts as biochemical. Particulars: 40 μM ATP. Summed up:
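Enzyme was preincubated with compound (10-point, 4-fold series) for 15 min at 25 °C in pH 7.5 HEPES buffer with NaCl, 10 mM MgCl2, 1 mM CaCl2, Triton X-100 and DTT. The reaction was started with substrate working solution (40 μM ATP, 200 µM DLG) and run 60 min at 25 °C. ADP was measured by ADP-Glo luminescence, with IC50 by regression.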
A general note: ADP-Glo first removes unused ATP, then detects ADP through luciferase.

A further data set concerns Human Pan T cells. The data set is described as follows: IL-2 Release Detection Assay. Particulars: T-cell. It is filed as cell-based. As to the method:
Isolate Human Pan T cells from PBMC according to T cell isolation kit (Stemcell, 17951). The suspend T cell in RPMI 1640 medium containing 10% FBS, 1% PS and 55 µM β-Mer at a density of 3*10^6 cells/well/3 ml are seeded into 6 well plate, recovered overnight at 37° C.&[…]. Harvest overnight recovered T cells are suspended in fresh RPMI1640 medium containing 10% FBS, 1% PS and 55 μM f-Mer, seeded 1*10^5/well/200 μl cells into the anti-CD3 pre-coated 96 well plate. Add dilutions of compounds into the cells and incubate at 37° C.&5% CO2 for 24 hours. IL-2 in cell supernatant was detected by ELISA Kit (R&D, DY202). Fit the compound EC50 in non-linear regression equation: Y=Bottom+(Top−Bottom)/(1+10^((Log EC50−X)*HillSlope)), X=compound concentration, Y=Activation %. Top and Bottom: Plateaus in same units as Y. Log EC50: same log units as X. Activation fold: Top activation/DMSO control. Activation % at 100 nM: Activation of non-linear regression equation curve at the concentration of 100 nM/DMSO control*100%.

The mark [3] stands for this setting: male, CD-1, plasma, mouse, oral, 5 mg/kg.
Setting [4] is: male, SD, plasma, rat, oral, 5 mg/kg.

Broadly, the AUC(0-inf) is total exposure, with the tail of the curve extrapolated. In general, AUC(0-t) refers to exposure summed from dosing to a finite time, without extrapolation to infinity. The Cmax is the peak of the concentration-time curve. For orientation: half-life means the time in which the quantity being followed falls by half. A high value points to slow decline. The IC50 is the concentration that inhibits the measured activity by half. A low value points to inhibition by little substance. The EC50 is the concentration at which the effect is half-maximal. The low end stands for greater potency, the high end for weaker potency. For orientation: maximal fold induction means the signal under treatment as a multiple of the control signal.

Where only a bound is given, the exact number is not on record here.

For `Cn1c(=O)nc(N2CCOCc3c(C#CC4CC4)cccc32)c2cc(Cl)c(OCCO)cc21` [Example 41, 6-chloro-4-(6-(cyclopropylethynyl)-2,3-dihydrobenzo[e][1,4]oxazepin-1(5H)-yl)-7-(2-hydroxyethoxy)-1-methylquinazolin-2(1H)-one], in data set [1] (setting [3]), the AUC(0-inf) came to 15500 ng·h/mL, the AUC(0-t) is 15300 ng·h/mL, the highest level (Cmax) was 2230 ng/mL and the half-life was 3.28 h. Moreover, the “T1/2, Cmax and AUC compared with compound” value in data set [1] (mouse PK evaluation, comparison in words) is “longer T1/2, much higher Cmax and AUC”. In data set [2] (setting [4]), the AUC(0-inf) is 12000 ng·h/mL, the exposure AUC(0-t) was determined as 10200 ng·h/mL, the Cmax was 724 ng/mL and the half-life is 8.09 h. Moreover, in data set [2] (rat PK evaluation, comparison in words), the “T1/2, Cmax and AUC compared with compound” value was “longer T1/2, much higher Cmax and AUC”. Further, the IC50 against DGKA was less than 1 nM. The same molecule yielded an EC50 in the data set with Human Pan T cells (IL-2 in supernatant by ELISA, anti-CD3 pre-coated plate, 24 hours) of 608 nM. The maximal fold induction with Human Pan T cells (Top activation/DMSO control) was found to be 26.3. The activity at 0.1 µM in the data set on Human Pan T cells (curve value at 100 nM/DMSO control*100%, read-out: Activation % at 100 nM) amounted to 510%.

These data come from US20250214990A1, “DIACYLGLYCEROL KINASE (DGK) ALPHA INHIBITORS AND USES THEREOF” (Insilico Medicine IP Limited, priority 2022, published 2025).
